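Protocol summary: plate cells (96-well), add compound at 5 concentrations, incubate 48 h, interpolate endpoints linearly. TGI marks complete inhibition of growth.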
How the values were obtained:
Test in all cases: DTP human tumour cell line panel, 48 h
[1] = test system: HS 578T breast
[2] = test system: HCC-2998 colon
[3] = test system: SR leukemia
[4] = test system: BT-549 breast
[5] = test system: OVCAR-4 ovarian
[6] = test system: UACC-62 melanoma
[7] = test system: MDA-N
[8] = test system: OVCAR-8 ovarian
[9] = test system: KM12 colon

Compound `Clc1cc(OCC23CC4CC(CC(C4)C2)C3)nc(OCC23CC4CC(CC(C4)C2)C3)n1` has a TGI [1] greater than 100 µM, a TGI [2] greater than 100 µM and a TGI [3] greater than 100 µM. The TGI [4] was greater than 100 µM, the TGI [5] was greater than 100 µM and the TGI [6] was greater than 100 µM. It also gave a TGI [7] greater than 100 µM, a TGI [8] greater than 100 µM and a TGI [9] greater than 100 µM.
In the case of `COP(=O)(OC)c1ccc(NCc2cc(O)ccc2O)cc1`, the TGI [1] is reported as greater than 63.8 µM, the TGI [2] is reported as 51.6 µM and the TGI [3] is reported as greater than 83.4 µM. The TGI [4] was 36.9 µM, the TGI [5] was greater than 59 µM and the TGI [6] was 43.9 µM. For the same compound, the TGI [7] was greater than 63.2 µM, the TGI [8] was greater than 71.2 µM and the TGI [9] was 38.4 µM.
`COc1cc([C@@H]2c3cc4c(cc3[C@@H](N=Cc3ccc(C(=O)O[C@@H](C(=O)O[C@H]5C[C@@]6(O)[C@@H](OC(=O)c7ccccc7)[C@@H]7[C@]8(OC(C)=O)CO[C@@H]8C[C@H](O)[C@@]7(C)C(=O)[C@H](OC(C)=O)C(=C5C)C6(C)C)[C@@H](NC(=O)c5ccccc5)c5ccccc5)cc3)[C@H]3COC(=O)[C@H]23)OCO4)cc(OC)c1O` gave a TGI [1] greater than 50 µM, a TGI [2] of 2.92 µM and a TGI [4] greater than 11.7 µM. For the same compound, the TGI [5] was greater than 50 µM, the TGI [6] was greater than 50 µM and the TGI [7] was 0.0663 µM. The TGI [8] was greater than 50 µM and the TGI [9] was greater than 50 µM.
`O=C1c2ccccc2-c2nnc(-c3ccc(Cl)cc3)cc21` was tested, and the TGI [1] was greater than 10 µM, the TGI [2] was greater than 10 µM and the TGI [3] was greater than 10 µM. For the same compound, the TGI [4] was greater than 10 µM, the TGI [5] was greater than 10 µM and the TGI [6] was greater than 10 µM. For the same compound, the TGI [7] was greater than 10 µM, the TGI [8] was greater than 10 µM and the TGI [9] was greater than 10 µM.
`O=C(Cn1c(=O)oc2ccc(C(=O)c3ccccc3Cl)cc21)c1ccc([N+](=O)[O-])cc1` showed a TGI [1] greater than 100 µM, a TGI [2] of 34.6 µM and a TGI [3] greater than 100 µM. It also gave a TGI [4] of 75 µM, a TGI [5] greater than 100 µM and a TGI [6] of 40.7 µM. The TGI [7] was 39.1 µM, the TGI [8] was greater than 100 µM and the TGI [9] was 58.1 µM.
`CNc1ncnc2c1nnn2C` was tested, and the TGI [2] was greater than 100 µM, the TGI [5] was greater than 100 µM and the TGI [6] was greater than 100 µM. For the same compound, the TGI [7] was greater than 100 µM, the TGI [8] was greater than 100 µM and the TGI [9] was greater than 100 µM.
`CN1CCN(/C(N)=C(\C#N)C(=O)Nc2ccccc2)CC1` showed a TGI [2] greater than 100 µM, a TGI [3] greater than 100 µM and a TGI [4] greater than 100 µM. It also gave a TGI [6] greater than 100 µM, a TGI [7] greater than 100 µM and a TGI [8] greater than 100 µM. The TGI [9] was greater than 100 µM.
With `O=S(=O)(O)c1cc(Nc2ccnc3ccccc23)c2c(S(=O)(=O)O)cc(S(=O)(=O)O)cc2c1` the TGI [1] was greater than 100 µM, the TGI [2] was greater than 100 µM and the TGI [4] was greater than 100 µM. The TGI [5] was greater than 100 µM, the TGI [6] was greater than 100 µM and the TGI [7] was greater than 100 µM. For the same compound, the TGI [8] was greater than 100 µM and the TGI [9] was greater than 100 µM.
`COc1cc(O)c2c(=O)c(OC)c(-c3ccc4c(c3)OCO4)oc2c1OC` showed a TGI [1] greater than 50 µM, a TGI [2] greater than 50 µM and a TGI [4] greater than 50 µM. The TGI [5] was greater than 50 µM, the TGI [6] was greater than 50 µM and the TGI [7] was greater than 50 µM. It also gave a TGI [8] greater than 50 µM and a TGI [9] greater than 50 µM.
`CC(C)(C)OC(=O)N1Cc2cc(O)ccc2C[C@H]1C(=O)O` gave a TGI [1] greater than 100 µM, a TGI [2] greater than 100 µM and a TGI [3] greater than 100 µM. For the same compound, the TGI [5] was greater than 100 µM, the TGI [6] was greater than 100 µM and the TGI [7] was greater than 100 µM. The TGI [8] was greater than 100 µM and the TGI [9] was greater than 100 µM.
`CCCCCCCCCCCCCCCCCCOc1ccc(/C=C/C2=[N+](CCCl)CCO2)cc1` gave a TGI [1] greater than 100 µM, a TGI [3] greater than 100 µM and a TGI [4] greater than 100 µM. For the same compound, the TGI [5] was greater than 100 µM, the TGI [6] was greater than 100 µM and the TGI [7] was greater than 100 µM. The TGI [8] was greater than 100 µM and the TGI [9] was greater than 100 µM.
`COc1ccc(/C=N\NC(=O)Nc2cccc3ccccc23)cc1` gave a TGI [1] of 61.2 µM, a TGI [2] greater than 100 µM and a TGI [4] greater than 100 µM. For the same compound, the TGI [5] was 43.2 µM, the TGI [7] was greater than 100 µM and the TGI [9] was greater than 100 µM.
With `O=c1oc2c/c(=C\c3ccccc3)c(=O)c3cccc1c3-2` the TGI [1] was 73.2 µM, the TGI [2] was greater than 100 µM and the TGI [3] was greater than 100 µM. The TGI [4] was 51.6 µM, the TGI [6] was 59.9 µM and the TGI [7] was 46.1 µM. The TGI [8] was 43.1 µM and the TGI [9] was 56.3 µM.
`CCOC(=O)c1cn(CC)c2cc3c(cc2c1=O)CCS3(=O)=O` showed a TGI [1] greater than 100 µM, a TGI [2] greater than 100 µM and a TGI [3] greater than 100 µM. For the same compound, the TGI [4] was greater than 100 µM, the TGI [6] was greater than 100 µM and the TGI [7] was greater than 100 µM. The TGI [8] was greater than 100 µM and the TGI [9] was greater than 100 µM.
In the case of `NC(=O)CCC(NC(=O)c1cccc2c(=O)c3ccccc3[nH]c12)C(=O)O` (stereo not given), the TGI [1] is reported as greater than 100 µM, the TGI [3] is reported as greater than 100 µM and the TGI [5] is reported as greater than 100 µM. The TGI [6] was greater than 100 µM, the TGI [7] was greater than 100 µM and the TGI [8] was greater than 100 µM. The TGI [9] was greater than 100 µM.
For `Cc1oncc1NC1=CC(=O)C(=O)c2ccccc21`, the TGI [1] was 71.5 µM, the TGI [2] was 33.4 µM and the TGI [3] was 34.6 µM. It also gave a TGI [4] of 25 µM, a TGI [5] of 12.9 µM and a TGI [6] of 8.4 µM. It also gave a TGI [8] of 11.9 µM and a TGI [9] of 42.1 µM.
`CCOC(=O)C1=CC(C)(C(=O)OCC)Nc2c(nc(SC)n(C)c2=O)N1` (stereo not given) showed a TGI [2] greater than 10 µM, a TGI [4] greater than 10 µM and a TGI [5] greater than 10 µM. The TGI [7] was greater than 10 µM, the TGI [8] was greater than 10 µM and the TGI [9] was greater than 10 µM.
For `COC(=O)c1c(O)ccc2c1c1c(n2Cc2ccccn2)C(=O)c2ccccc2C1=O`, the TGI [1] was greater than 100 µM, the TGI [2] was 35 µM and the TGI [3] was 64.2 µM. It also gave a TGI [4] greater than 100 µM, a TGI [6] greater than 100 µM and a TGI [7] greater than 100 µM. The TGI [8] was greater than 100 µM and the TGI [9] was greater than 100 µM.
`CNC(=O)c1ccccc1[S+]1c2cccc3cccc(c23)C(=O)N1C` (stereo not given) gave a TGI [1] greater than 100 µM, a TGI [4] greater than 100 µM and a TGI [5] greater than 100 µM. The TGI [6] was greater than 100 µM, the TGI [7] was greater than 100 µM and the TGI [8] was greater than 100 µM. It also gave a TGI [9] greater than 100 µM.
For `COc1ccc(N=N/C(=N/NC(=O)c2cc(Cl)ccc2C(=O)c2ccccc2)c2ccc(N(CCC#N)CCC#N)cc2C)cc1`, the TGI [1] was greater than 100 µM, the TGI [2] was 70.8 µM and the TGI [4] was greater than 100 µM. It also gave a TGI [5] greater than 100 µM, a TGI [6] of 51.8 µM and a TGI [7] greater than 100 µM. The TGI [8] was 46.1 µM and the TGI [9] was greater than 100 µM.
Compound `N#CCSc1c(-c2ccccc2)c(=O)n(-c2ccccc2)c(=S)n1-c1ccccc1` has a TGI [1] greater than 100 µM, a TGI [3] greater than 100 µM and a TGI [5] greater than 100 µM. It also gave a TGI [6] greater than 100 µM, a TGI [7] greater than 100 µM and a TGI [8] greater than 100 µM. For the same compound, the TGI [9] was greater than 100 µM.
With `COC12OC3CC4(C)C(=CC3OC(OC(C)C1O)C2O)CCC1C4CCC2(C)C(c3ccc(=O)oc3)CCC12O` (stereo not given) the TGI [2] was 0.00945 µM, the TGI [3] was 0.00291 µM and the TGI [4] was 0.00413 µM. The TGI [5] was 0.00199 µM, the TGI [6] was 0.00472 µM and the TGI [7] was 0.00434 µM. It also gave a TGI [8] of 0.00318 µM and a TGI [9] of 0.00739 µM.
`Cc1c(O)c(=O)ccn1CCc1c[nH]c2ccccc12` gave a TGI [1] of 54 µM, a TGI [3] of 49.2 µM and a TGI [4] greater than 100 µM. For the same compound, the TGI [7] was greater than 100 µM, the TGI [8] was 73.6 µM and the TGI [9] was greater than 100 µM.
With `CC1=Nc2c(C#N)ncn2N=C(C)C1` the TGI [1] was greater than 100 µM, the TGI [3] was greater than 100 µM and the TGI [4] was greater than 100 µM. For the same compound, the TGI [5] was greater than 100 µM, the TGI [6] was greater than 100 µM and the TGI [7] was greater than 100 µM. It also gave a TGI [9] greater than 100 µM.
In the case of `Clc1ccc2nc(CC3CCCC3)[nH]c2c1`, the TGI [2] is reported as 41.8 µM, the TGI [3] is reported as 26.5 µM and the TGI [5] is reported as 45.8 µM. For the same compound, the TGI [6] was 33.4 µM, the TGI [7] was 38.5 µM and the TGI [8] was greater than 100 µM. It also gave a TGI [9] of 38.8 µM.

— PubChem BioAssay (NCI)
